The values that follow come from US12280069B2, “Methods of using human milk oligosaccharides for improving airway respiratory health” (priority 2010, dated 2025).

Molecules are shown by their SMILES. Bounds are passed on as bounds.

The test system of test [1] is interferon-inducible protein 10 (IP-10). In words: IP-10 in RSV-infected peripheral blood mononuclear cells (Example 39). In kind it is cell-based, human. The settings on record: for IP-10 level compared with uninfected controls / IP-10 in virus-infected variables: FIGS. 3-6; for IP-10 in virus-infected variables: both donors, 24 hour pretreatment, 0.1-0.5 mg/mL (LNnT 0.1-1 mg/mL); for reduction of inflammation caused by RSV: pretreatment for 24 hours, measured by decrease in IP-10. The procedure: (§1) Specifically, either 3′SL or 6′SL is added, at concentrations of 0.1 mg/mL, 0.2 mg/mL, or 0.5 mg/mL to fresh peripheral blood mononuclear cells and incubated at 37° C. in 5% CO2 to pretreat the cells for approximately 24 hours. LNnT is added, at concentrations of 0.1 mg/mL, 0.2 mg/mL, or 1 mg/mL to fresh peripheral blood mononuclear cells and incubated at 37° C. in 5% CO2 to pretreat the cells for approximately 24 hours. Lactose is included as a carbohydrate control. Matched endotoxin unit concentration controls are included to allow differentiation of ingredient effects from inherent low levels of endotoxin. Some variables are then incubated with RSV at a multiplicity of infection (MOI) of 0.1 for approximately 1 hour at 37° C. in 5% in CO2. Uninfected control variables are incubated with medium for approximately 1 hour at 37° C. in 5% CO2. After approximately one hour, fresh medium alone, or fresh medium containing the appropriate concentration of 3′SL, 6′SL, LNnT, lactose, or endotoxin is added to the appropriate tubes and the cells are incubated for 48 hours at 37° C. in 5% CO2. Supernatants are collected at 24 and 48 hours post-infection.
(§2) Cytokines are measured in supernatants for each variable at 24 and 48 hours to assess the effects of HMOs on the early immune response to RSV. Cytokines are measured using custom Bio-Plex Human cytokine kits from Bio-Rad. Results for interferon-inducible protein 10 (IP-10, also known as CXCL 10) are shown in FIGS. 3 and 4 for 3′SL and 6′SL, and in FIGS. 5 and 6 for LNnT. IP-10 is a CXC chemokine that attracts, binds to and activates the CXCR3 receptor on natural killer cells and memory T cells. IP-10 is expressed by monocytes and a number of other cells, and is induced by interferon. A positive correlation exists between RSV clinical disease severity in children (as measured by: length of hospital stay, fever, and number of days supplemental O2 is required) and serum IP-10. Therefore, a decrease in IP-10 signals a decrease in severity of RSV disease experienced.

Test [2] relates to interleukin 10 (IL-10). In words: IL-10 in peripheral blood mononuclear cells with or without RSV (Example 39). In kind it is cell-based, human. The settings on record: in the presence or absence of RSV; FIGS. 7-10. The procedure:
as §1, with “After approximately one hour, fresh medium alone, or fresh medium containing the appropriate concentration of 3′SL, 6′SL, LNnT, lactose, or endotoxin is added to the appropriate tubes and the cells are incubated for 48 hours at 37° C. in 5% CO2. Supernatants are collected at 24 and 48 hours post-infection.” left out
Cytokines are measured in supernatants for each variable at 24 and 48 hours to assess the effects of HMOs on the early immune response to RSV. Cytokines are measured using custom Bio-Plex Human cytokine kits from Bio-Rad. […] A positive correlation exists between RSV clinical disease severity in children (as measured by: length of hospital stay, fever, and number of days supplemental O2 is required) and serum IP-10. […]

The subject of test [3] is monocyte-derived cytokines. In words: Monocyte-derived cytokines in peripheral blood mononuclear cells (Example 39). In kind it is cell-based, human. How it is done: as §1, §2
The test system of test [4] is respiratory syncytial virus (RSV). In words: RSV replication (RSV NS1 copy numbers) in 16HBE lung epithelial cells (Example 42). In kind it is cell-based. Particulars: RSV MOI 1, FIGS. 13-15. How it is done: Specifically, on Day −1, 16HBE cell monolayers are seeded in sufficient numbers to reach 95-100% confluence in 24 well places by Day 0. On day 0, either 2′FL (in concentrations of 1 μg/mL, 5 μg/mL, 10 μg/mL, 50 μg/mL, 100 μg/mL, 500 μg/mL, and 1000 μg/mL), LNnT (in concentrations of 10 μg/mL, 100 μg/mL, or 1000 μg/mL), or 3′SL (in concentrations of 5 μg/mL, 10 μg/mL, 50 μg/mL, 100 μg/mL, 500 μg/mL, and 1000 μg/mL) is added and incubated for approximately 24 hours at 37° C. in 5% CO2. On day 1, the cell supernatants are removed and the monolayers are incubated with medium alone or medium plus Respiratory Syncytial Virus (RSV) for approximately 1 hour at 37° C. in 5% CO2 at a multiplicity of infection (MOI) of 1. After approximately 1 hour, fresh medium alone or containing the appropriate concentrations of 2′FL 3′SL, or LNnT is added to the appropriate wells, and the cells are incubated for 48 hours at 37° C. in 5% CO2. On day 3, supernatants and cell lysates are collected separately, aliquotted and stored frozen at −70° C. for later analysis. Cell lysates are analyzed by TaqMan qRTPCR to assess viral replication through measurement of RSV NS1 copy numbers.

Test [5] relates to H1N1 influenza A virus (IAV). In words: H1N1 influenza A virus replication (IAV M gene copy numbers) in 16HBE cells (Example 43). In kind it is cell-based. Particulars: 16HBE lung epithelial cells; MOI 0.01; FIG. 16.
In test [6] the test system is interleukin 10 (IL-10). In words: IL-10 in PBMCs in the presence or absence of RSV (Example 45). In kind it is cell-based, human. Particulars: in the presence or absence of RSV (MOI 0.1); for IL-10 response, Donor A and Donor E: 0.1-2.0 mg/mL, FIGS. 20A, 20B; for IL-10 response, Donor B and Donor E: FIGS. 19A, 19B. The procedure: Specifically, 3′SL and 6′SL are added individually at concentrations of 0.1 mg/mL, 0.2 mg/mL, or 0.5 mg/mL or in combination (Combo 1=1 part 3′SL to 1 part 6′SL; and Combo 2=1 part 3′SL to 2 parts 6′SL), at total concentrations of 0.2 mg/mL, 0.4 mg/mL, or 1.0 mg/mL to fresh PBMCs and incubated at 37° C. in 5% CO2 to pretreat the cells for approximately 24 hours. In a separate experiment, LNnT and 2′FL are added individually at concentrations of 0.1 mg/mL, 0.2 mg/mL, 1.0 mg/mL or 2.0 mg/mL to fresh PBMCs and incubated at 37° C. in 5% CO2 to pretreat the cells for approximately 24 hours. Lactose is included as a carbohydrate control. Matched endotoxin unit concentration controls are included to allow differentiation of ingredient effects from inherent low levels of endotoxin. After approximately 24 hours, some variables are then incubated with RSV at a multiplicity of infection (MOI) of 0.1 for approximately 1 hour at 37° C. in 5% in CO2. Uninfected control variables are incubated with medium for approximately 1 hour at 37° C. in 5% CO2. After approximately 1 hour, fresh medium alone or containing the appropriate concentrations of LNnT alone, 2′FL alone, 3′SL or 6′SL individually or in combination, lactose alone, or endotoxin alone is added to the appropriate variables, and the PBMCs were incubated for 48 hours at 37° C. in 5% CO2. Supernatants are collected at 24 and 48 hours post-infection. Cytokines are measured in supernatants for each variable at 24 and 48 hours to assess the effects of HMOs on the early immune response to RSV. Cytokines are measured using custom Bio-Plex Human cytokine kits from Bio-Rad.

Test [7] has as its system H1N1 influenza virus. In kind it is cell-based. Particulars: at a concentration of 1 mg/mL.
In test [8] the test system is H1N1 influenza virus. In kind it is cell-based. Particulars: 10 mg/mL; MDCK cells; FIG. 1.
Test [9] relates to H1N1 influenza A virus (IAV). In words: H1N1 influenza A virus replication (IAV M gene copy numbers) in Calu3 cells (Example 43). In kind it is cell-based. The settings on record: Calu3 lung epithelial cells; MOI 0.01; FIG. 17.
The subject of test [10] is interferon-inducible protein 10 (IP-10). In words: IP-10 in RSV-infected PBMCs, 6′SL (Example 44). In kind it is cell-based, human. The settings on record: 0.1 mg/mL to 1 mg/mL; RSV MOI 1.0; 4 donors; 48 hours; FIG. 18. The procedure:
Specifically, 6′SL was added individually at concentrations of 0.1 mg/mL, 0.2 mg/mL, 0.5 mg/mL or 1.0 mg/mL to fresh peripheral blood mononuclear cells (PCMBs) and incubated at 37° C. in 5% CO2 to pretreat the cells for approximately 24 hours. After approximately 24 hours, some variables are then incubated with RSV at a multiplicity of infection (MOI) of 1.0 for approximately 1 hour at 37° C. in 5% in CO2. Uninfected control variables are incubated with medium for approximately 1 hour at 37° C. in 5% CO2. After approximately 1 hour, fresh medium alone or containing the appropriate concentrations of 6′SL is added to the appropriate variables, and the PBMCs are incubated for 48 hours at 37° C. in 5% CO2. Supernatants are collected at 48 hours post-infection. Cytokines are measured in supernatants for each variable at 48 hours to assess the effects of HMOs on the early immune response to RSV.
Interferon-inducible Protein 10 (IP-10, also known as CXCL10) is a CXC chemokine that attracts, binds to and activates the CXCR3 receptor on Natural Killer Cells and Memory T cells. IP-10 is expressed by monocytes and a number of other cells, and is induced by interferon. A positive correlation exists between RSV clinical disease severity in children (as measured by: length of hospital stay, fever, and number of days supplemental O2 was required) and serum IP-10. […]

[11] abbreviates: in the presence or absence of the virus.

As for `CC(=O)N[C@H]1[C@H](O[C@H]2[C@@H](O)[C@@H](CO)O[C@@H](O[C@H]3[C@H](O)[C@@H](O)C(O)O[C@@H]3CO)[C@@H]2O)O[C@H](CO)[C@@H](O[C@@H]2O[C@H](CO)[C@H](O)[C@H](O)[C@H]2O)[C@@H]1O` (mixture of isomers) [LNnT, lacto-N-neotetraose], in [1] (RSV MOI 0.1), the “IP-10 level compared with uninfected controls” value is “reduce IP-10 to levels found in uninfected controls” and the “IP-10 in virus-infected variables” value is listed as “clearly downregulates IP-10”. Also, in test [1], the “reduction of inflammation caused by RSV” value is given as “effective in reducing inflammation caused by RSV”. In the test on interleukin 10 (IL-10) [2], the IL-10 concentration entry is recorded as “increases IL-10 concentration in a dose-dependent manner”. In addition, the “production of monocyte-derived cytokines (IL-10, MIP-1β, Interferon-γ, IL-8, IL-1α, IL-1β, IL-1ra)” value in test [3] (setting [11]) is on record as “immunomodulatory”. The “concentrations that decrease viral load or inhibit RSV replication (RSV NS1 copies)” value in test [4] is at least 10 µg/mL. Further, the “concentrations that decrease viral load or inhibit IAV replication (IAV M gene copies)” value in test [5] was at least 1 µg/mL. The “IL-10 response, Donor A and Donor E” value in the test with interleukin 10 (IL-10) [6] is listed as “clear dose-dependent increase in IL-10 response”.
Take `CC(=O)N[C@H]1[C@H]([C@H](O)[C@H](O)CO)O[C@@](O[C@H]2[C@@H](O)[C@@H](CO)O[C@@H](O[C@H]3[C@H](O)[C@@H](O)C(O)O[C@@H]3CO)[C@@H]2O)(C(=O)O)C[C@@H]1O` (stereo partly drawn) [3′SL, 3′-sialyllactose]: the “anti-viral activity against H1N1 influenza virus” value in the test with H1N1 influenza virus [7] is reported as “inhibited”. Also, the “RSV-induced IP-10, Donor B” value in test [1] (RSV MOI 0.1, Donor B) is listed as “not effective”. In addition, the “RSV-induced IP-10, Donor E” value in [1] (RSV MOI 0.1, Donor E) was “downregulates RSV-induced IP-10”. In addition, the “reduction of inflammation caused by RSV” value in test [1] is “effective in reducing inflammation caused by RSV”. For the same compound, in test [3] (setting [11]), the “production of monocyte-derived cytokines (MIP-1β, Interferon-γ, IL-8, IL-1ra)” value was “immunomodulatory”. Also, in the test on interleukin 10 (IL-10) [6], the “IL-10 response, Donor B and Donor E” value was “do not increase IL-10”.
As to `CC(=O)N[C@H]1[C@H]([C@H](O)[C@H](O)CO)O[C@@](OC[C@H]2O[C@@H](O[C@H]3[C@H](O)[C@@H](O)[C@H](O)O[C@@H]3CO)[C@H](O)[C@@H](O)[C@H]2O)(C(=O)O)C[C@@H]1O` [6′SL, 6′-sialyllactose], the “inhibition of virus infectivity” value with H1N1 influenza virus [8] was “approximately 60%”. In [1] (RSV MOI 0.1), the “IP-10 level compared with uninfected controls” value is “reduce IP-10 to levels found in uninfected controls” and the “IP-10 in virus-infected variables” value is “clearly downregulates IP-10”. Besides, in test [1], the “reduction of inflammation caused by RSV” value is “effective in reducing inflammation caused by RSV”. Also, the “production of monocyte-derived cytokines (IL-10, MIP-1β, Interferon-γ, IL-8, IL-1α, IL-1β, IL-1ra)” value in test [3] (in the absence of the virus) is recorded as “immunomodulatory”. For the same compound, the “concentrations that decrease viral load or inhibit IAV replication (IAV M gene copies)” value in test [9] was at least 10 µg/mL. In addition, the “IP-10 in RSV infected PBMCs” value in [10] was “dose-dependent downregulation of IP-10”. Also, in the test with interleukin 10 (IL-10) [6], the “IL-10 response, Donor B and Donor E” value is “clear dose-dependent increase in IL-10 response”.
Consider `OC[C@H]1O[C@@H](O[C@H]2[C@H](O)[C@@H](O)C(O)O[C@@H]2CO)[C@H](O)[C@@H](O)[C@H]1O` (stereo partly drawn) [lactose, Lactose, reference compound], for which, in the test with interleukin 10 (IL-10) [6], the “IL-10 response, Donor A and Donor E” value was “do not increase IL-10”; the “IL-10 response, Donor B and Donor E” value was “do not increase IL-10”.
